Test results: PubChem BioAssay AID1963981 (Molecular Pharmacology Branch, DTP, NCI, 2024)

Tested on: 354836-022-R-J1-PDC multicell spheroid viability
Assay: Anticancer human tumor 354836-022-R-J1-PDC patient-derived head and neck squamous cell carcinoma cell line growth inhibition [PI3K]
Conditions: for IC50: curve of first compound; for viability, T/C: stronger effect = lower value
Procedure, shortened: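 Tumor cells were combined with HUVEC and MSCs into spheroids, then dosed with PI3K-inhibitor combinations over half-log ranges capped near clinical Cmax or 10 microM.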
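Note: spheroids exposed to agents for seven days before the viability read.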

SMILES: CNC(=O)c1ccc(N2C(=S)N(c3ccc(C#N)c(C(F)(F)F)c3)C(=O)C2(C)C)cc1F + CC(Nc1ncnc2nc[nH]c12)c1cc2cccc(Cl)c2c(=O)n1-c1ccccc1
- IC50 (second compound 0.0316 µM): > 10 µM
- IC50 (second compound 0.1 µM): > 10 µM
- IC50 (second compound 0.316 µM): > 10 µM
- IC50 (second compound 1 µM): > 10 µM
- IC50 (second compound 3.16 µM): > 10 µM
- IC50 (second compound 10 µM): > 10 µM
- viability, T/C (second compound 0.0316 µM, first compound 0.0316 µM): 97.4%
- viability, T/C (second compound 0.0316 µM, first compound 0.1 µM): 99.1%
- viability, T/C (second compound 0.0316 µM, first compound 0.316 µM): 92.9%
- viability, T/C (second compound 0.0316 µM, first compound 1 µM): 93%
- viability, T/C (second compound 0.0316 µM, first compound 3.16 µM): 109%
- viability, T/C (second compound 0.0316 µM, first compound 10 µM): 95.8%
- viability, T/C (second compound 0.1 µM, first compound 0.0316 µM): 95.2%
- viability, T/C (second compound 0.1 µM, first compound 0.1 µM): 113%
- viability, T/C (second compound 0.1 µM, first compound 0.316 µM): 109%
- viability, T/C (second compound 0.1 µM, first compound 1 µM): 104%
- viability, T/C (second compound 0.1 µM, first compound 3.16 µM): 94.4%
- viability, T/C (second compound 0.1 µM, first compound 10 µM): 93.8%
- viability, T/C (second compound 0.316 µM, first compound 0.0316 µM): 100%
- viability, T/C (second compound 0.316 µM, first compound 0.1 µM): 97.8%
- viability, T/C (second compound 0.316 µM, first compound 0.316 µM): 97.6%
- viability, T/C (second compound 0.316 µM, first compound 1 µM): 109%
- viability, T/C (second compound 0.316 µM, first compound 3.16 µM): 105%
- viability, T/C (second compound 0.316 µM, first compound 10 µM): 91.5%
- viability, T/C (second compound 1 µM, first compound 0.0316 µM): 97%
- viability, T/C (second compound 1 µM, first compound 0.1 µM): 92.4%
- viability, T/C (second compound 1 µM, first compound 0.316 µM): 95.9%
- viability, T/C (second compound 1 µM, first compound 1 µM): 117%
- viability, T/C (second compound 1 µM, first compound 3.16 µM): 93.6%
- viability, T/C (second compound 1 µM, first compound 10 µM): 95%
- viability, T/C (second compound 3.16 µM, first compound 0.0316 µM): 105%
- viability, T/C (second compound 3.16 µM, first compound 0.1 µM): 106%
- viability, T/C (second compound 3.16 µM, first compound 0.316 µM): 105%
- viability, T/C (second compound 3.16 µM, first compound 1 µM): 108%
- viability, T/C (second compound 3.16 µM, first compound 3.16 µM): 85.2%
- viability, T/C (second compound 3.16 µM, first compound 10 µM): 95.5%
- viability, T/C (second compound 10 µM, first compound 0.0316 µM): 89.3%
- viability, T/C (second compound 10 µM, first compound 0.1 µM): 86.5%
- viability, T/C (second compound 10 µM, first compound 0.316 µM): 94.5%
- viability, T/C (second compound 10 µM, first compound 1 µM): 97%
- viability, T/C (second compound 10 µM, first compound 3.16 µM): 95.3%
- viability, T/C (second compound 10 µM, first compound 10 µM): 86.6%

SMILES: Cn1cnc2c(F)c(Nc3ccc(Br)cc3Cl)c(C(=O)NOCCO)cc21 + CC(Nc1ncnc2nc[nH]c12)c1cc2cccc(Cl)c2c(=O)n1-c1ccccc1
- IC50 (second compound 0.0316 µM): > 3 µM
- IC50 (second compound 0.1 µM): 2.65 µM
- IC50 (second compound 0.316 µM): 2.67 µM
- IC50 (second compound 1 µM): > 3 µM
- IC50 (second compound 3.16 µM): > 3 µM
- IC50 (second compound 10 µM): > 3 µM
- viability, T/C (second compound 0.0316 µM, first compound 0.00949 µM): 94.3%
- viability, T/C (second compound 0.0316 µM, first compound 0.03 µM): 90.4%
- viability, T/C (second compound 0.0316 µM, first compound 0.0949 µM): 87.4%
- viability, T/C (second compound 0.0316 µM, first compound 0.3 µM): 71.9%
- viability, T/C (second compound 0.0316 µM, first compound 0.949 µM): 69.4%
- viability, T/C (second compound 0.0316 µM, first compound 3 µM): 49.4%
- viability, T/C (second compound 0.1 µM, first compound 0.00949 µM): 89.9%
- viability, T/C (second compound 0.1 µM, first compound 0.03 µM): 80.4%
- viability, T/C (second compound 0.1 µM, first compound 0.0949 µM): 70.3%
- viability, T/C (second compound 0.1 µM, first compound 0.3 µM): 81.3%
- viability, T/C (second compound 0.1 µM, first compound 0.949 µM): 64.6%
- viability, T/C (second compound 0.1 µM, first compound 3 µM): 47.7%
- viability, T/C (second compound 0.316 µM, first compound 0.00949 µM): 89.7%
- viability, T/C (second compound 0.316 µM, first compound 0.03 µM): 83.9%
- viability, T/C (second compound 0.316 µM, first compound 0.0949 µM): 94.2%
- viability, T/C (second compound 0.316 µM, first compound 0.3 µM): 72.1%
- viability, T/C (second compound 0.316 µM, first compound 0.949 µM): 74.8%
- viability, T/C (second compound 0.316 µM, first compound 3 µM): 46.6%
- viability, T/C (second compound 1 µM, first compound 0.00949 µM): 90.5%
- viability, T/C (second compound 1 µM, first compound 0.03 µM): 83.8%
- viability, T/C (second compound 1 µM, first compound 0.0949 µM): 79.6%
- viability, T/C (second compound 1 µM, first compound 0.3 µM): 81.2%
- viability, T/C (second compound 1 µM, first compound 0.949 µM): 74.5%
- viability, T/C (second compound 1 µM, first compound 3 µM): 55.6%
- viability, T/C (second compound 3.16 µM, first compound 0.00949 µM): 99.5%
- viability, T/C (second compound 3.16 µM, first compound 0.03 µM): 86.9%
- viability, T/C (second compound 3.16 µM, first compound 0.0949 µM): 71.1%
- viability, T/C (second compound 3.16 µM, first compound 0.3 µM): 88.8%
- viability, T/C (second compound 3.16 µM, first compound 0.949 µM): 81%
- viability, T/C (second compound 3.16 µM, first compound 3 µM): 63.5%
- viability, T/C (second compound 10 µM, first compound 0.00949 µM): 85.5%
- viability, T/C (second compound 10 µM, first compound 0.03 µM): 89.2%
- viability, T/C (second compound 10 µM, first compound 0.0949 µM): 87.1%
- viability, T/C (second compound 10 µM, first compound 0.3 µM): 77.1%
- viability, T/C (second compound 10 µM, first compound 0.949 µM): 68.2%
- viability, T/C (second compound 10 µM, first compound 3 µM): 54.8%
